Patent publication US10681909B2, “Herbicidal triazoles” (FMC Corporation, priority 2014, dated 2020)

Assays:
corn [1] = assay: Test A preemergence; assay type: in vivo, Zea mays; details: 0 to 100 scale (0 no effect, 100 complete control)
Excerpt: (§1) Seeds of plant species selected from barnyardgrass (Echinochloa crus-galli), crabgrass, large (large crabgrass, Digitaria sanguinalis), kochia (Kochia scoparia), ragweed (common ragweed, Ambrosia elatior), foxtail, giant (giant foxtail, Setaria faberii), morningglory (Ipomoea spp.), pigweed (Amaranthus retroflexus), velvetleaf (Abutilon theophrasti), ryegrass, Italian (Italian ryegrass, Lolium multiflorum), wheat (Triticum aestivum), and corn (Zea mays) were planted into a blend of loam soil and sand and treated preemergence with a directed soil spray using test chemicals formulated in a non-phytotoxic solvent mixture which included a surfactant. At the same time, plants selected from these crop and weed species and also blackgrass (Alopecurus myosuroides), and galium (catchweed bedstraw, Galium aparine), were planted in pots containing the same blend of loam soil and sand and treated with postemergence applications of test chemicals formulated in the same manner. Plants ranged in height from 2 to 10 cm and were in the one- to two-leaf stage for the postemergence treatment. […] A dash (-) response means no test result.

barnyardgrass [2] = assay: Test A postemergence; assay type: in vivo, Echinochloa crus-galli; details: 0 to 100 scale (0 no effect, 100 complete control), approx. 10 d
Excerpt: as §1

velvetleaf [3] = assay: Test A postemergence; assay type: in vivo, Abutilon theophrasti; details: 0 to 100 scale (0 no effect, 100 complete control), approx. 10 d
Excerpt: as §1

rice = assay: Test B flooded paddy test; assay type: in vivo, Oryza sativa; details: applied to paddy water at 2-leaf stage, visual rating after 13 to 15 d, scale 0 (no effect) to 100 (complete control)
Excerpt: (§2) At time of treatment, test pots were flooded to 3 cm above the soil surface, treated by application of test compounds directly to the paddy water, and then maintained at that water depth for the duration of the test. Treated plants and controls were maintained in a greenhouse for 13 to 15 d, after which time all species were compared to controls and visually evaluated. […] A dash (-) response means no test result.

pigweed [4] = assay: Test A postemergence; assay type: in vivo, Amaranthus retroflexus; details: 0 to 100 scale (0 no effect, 100 complete control), approx. 10 d
Excerpt: as §1

barnyardgrass [5] = assay: Test B flooded paddy test; assay type: in vivo, Echinochloa crus-galli; details: applied to paddy water at 2-leaf stage, visual rating after 13 to 15 d, scale 0 (no effect) to 100 (complete control)
Excerpt: as §2

barnyardgrass [6] = assay: Test A preemergence; assay type: in vivo, Echinochloa crus-galli; details: 0 to 100 scale (0 no effect, 100 complete control)
Excerpt: as §1

pigweed [7] = assay: Test A preemergence; assay type: in vivo, Amaranthus retroflexus; details: 0 to 100 scale (0 no effect, 100 complete control)
Excerpt: as §1

crabgrass, large [8] = assay: Test A preemergence; assay type: in vivo, Digitaria sanguinalis; details: 0 to 100 scale (0 no effect, 100 complete control)
Excerpt: as §1

morningglory [9] = assay: Test A preemergence; assay type: in vivo, Ipomoea spp.; details: 0 to 100 scale (0 no effect, 100 complete control)
Excerpt: as §1

foxtail, giant [10] = assay: Test A preemergence; assay type: in vivo, Setaria faberii; details: 0 to 100 scale (0 no effect, 100 complete control)
Excerpt: as §1

wheat [11] = assay: Test A preemergence; assay type: in vivo, Triticum aestivum; details: 0 to 100 scale (0 no effect, 100 complete control)
Excerpt: as §1

wheat [12] = assay: Test A postemergence; assay type: in vivo, Triticum aestivum; details: 0 to 100 scale (0 no effect, 100 complete control), approx. 10 d
Excerpt: as §1

crabgrass, large [13] = assay: Test A postemergence; assay type: in vivo, Digitaria sanguinalis; details: 0 to 100 scale (0 no effect, 100 complete control), approx. 10 d
Excerpt: as §1

ducksalad = assay: Test B flooded paddy test; assay type: in vivo, Heteranthera limosa; details: applied to paddy water at 2-leaf stage, visual rating after 13 to 15 d, scale 0 (no effect) to 100 (complete control)
Excerpt: as §2

velvetleaf [14] = assay: Test A preemergence; assay type: in vivo, Abutilon theophrasti; details: 0 to 100 scale (0 no effect, 100 complete control)
Excerpt: as §1

corn [15] = assay: Test A postemergence; assay type: in vivo, Zea mays; details: 0 to 100 scale (0 no effect, 100 complete control), approx. 10 d
Excerpt: as §1

sedge, umbrella = assay: Test B flooded paddy test; assay type: in vivo, Cyperus difformis; details: applied to paddy water at 2-leaf stage, visual rating after 13 to 15 d, scale 0 (no effect) to 100 (complete control)
Excerpt: as §2

morningglory [16] = assay: Test A postemergence; assay type: in vivo, Ipomoea spp.; details: 0 to 100 scale (0 no effect, 100 complete control), approx. 10 d
Excerpt: as §1

foxtail, giant [17] = assay: Test A postemergence; assay type: in vivo, Setaria faberii; details: 0 to 100 scale (0 no effect, 100 complete control), approx. 10 d
Excerpt: as §1

SMILES	Plant response rating, Corn (corn [1]; 125 g ai/ha)	Plant response rating, Corn (corn [1]; 500 g ai/ha, approx. 10 d)	Plant response rating, Barnyardgrass (barnyardgrass [2]; 125 g ai/ha)	Plant response rating, Barnyardgrass (barnyardgrass [2]; 500 g ai/ha)	Plant response rating, Velvetleaf (velvetleaf [3]; 125 g ai/ha)	Plant response rating, Velvetleaf (velvetleaf [3]; 500 g ai/ha)	Plant response rating, Pigweed (pigweed [4]; 125 g ai/ha)	Plant response rating, Pigweed (pigweed [4]; 500 g ai/ha)	Plant response rating, Barnyardgrass (barnyardgrass [6]; 125 g ai/ha)	Plant response rating, Barnyardgrass (barnyardgrass [6]; 500 g ai/ha, approx. 10 d)	Plant response rating, Pigweed (pigweed [7]; 125 g ai/ha)	Plant response rating, Pigweed (pigweed [7]; 500 g ai/ha, approx. 10 d)	Plant response rating, Crabgrass, Large (crabgrass, large [8]; 125 g ai/ha)	Plant response rating, Crabgrass, Large (crabgrass, large [8]; 500 g ai/ha, approx. 10 d)	Plant response rating, Morningglory (morningglory [9]; 125 g ai/ha)	Plant response rating, Morningglory (morningglory [9]; 500 g ai/ha, approx. 10 d)	Plant response rating, Foxtail, Giant (foxtail, giant [10]; 125 g ai/ha)	Plant response rating, Foxtail, Giant (foxtail, giant [10]; 500 g ai/ha, approx. 10 d)	Plant response rating, Wheat (wheat [11]; 125 g ai/ha)	Plant response rating, Wheat (wheat [11]; 500 g ai/ha, approx. 10 d)	also measured
CCCOc1nc(-c2ccc(F)cc2)nn1Cc1ccnc(C(F)(F)F)c1 [Compound 10]	0	20	40	80	50	80	100	100	30	100	100	100	100	100	10	20	100	100	0	20	Plant response rating, Rice, Flood (rice; 125 g ai/ha): 20; Plant response rating, Barnyardgrass, Flood (barnyardgrass [5]; 125 g ai/ha): 45; Plant response rating, Wheat (wheat [12]; 125 g ai/ha): 10; Plant response rating, Wheat (wheat [12]; 500 g ai/ha): 10; Plant response rating, Crabgrass, Large (crabgrass, large [13]; 125 g ai/ha): 40; Plant response rating, Crabgrass, Large (crabgrass, large [13]; 500 g ai/ha): 90; Plant response rating, Ducksalad, Flood (ducksalad; 125 g ai/ha): 70; Plant response rating, Velvetleaf (velvetleaf [14]; 125 g ai/ha): 0; Plant response rating, Velvetleaf (velvetleaf [14]; 500 g ai/ha, approx. 10 d): 30; Plant response rating, Corn (corn [15]; 125 g ai/ha): 20; Plant response rating, Corn (corn [15]; 500 g ai/ha): 30; Plant response rating, Sedge, Umbrella, Flood (sedge, umbrella; 125 g ai/ha): 80; Plant response rating, Morningglory (morningglory [16]; 125 g ai/ha): 50; Plant response rating, Morningglory (morningglory [16]; 500 g ai/ha): 90; Plant response rating, Foxtail, Giant (foxtail, giant [17]; 125 g ai/ha): 50; Plant response rating, Foxtail, Giant (foxtail, giant [17]; 500 g ai/ha): 90
CCc1nc(-c2cccc(C(F)(F)F)c2)nn1Cc1ccnc(C(F)(F)F)c1 [Compound 11]	0	0	0	50	50	100	80	100	0	30	30	100	20	90	0	20	20	90	0	0	Plant response rating, Rice, Flood (rice; 250 g ai/ha): 0; Plant response rating, Barnyardgrass, Flood (barnyardgrass [5]; 250 g ai/ha): 0; Plant response rating, Wheat (wheat [12]; 125 g ai/ha): 10; Plant response rating, Wheat (wheat [12]; 500 g ai/ha): 20; Plant response rating, Crabgrass, Large (crabgrass, large [13]; 125 g ai/ha): 20; Plant response rating, Crabgrass, Large (crabgrass, large [13]; 500 g ai/ha): 60; Plant response rating, Ducksalad, Flood (ducksalad; 250 g ai/ha): 0; Plant response rating, Velvetleaf (velvetleaf [14]; 125 g ai/ha): 0; Plant response rating, Velvetleaf (velvetleaf [14]; 500 g ai/ha, approx. 10 d): 0; Plant response rating, Corn (corn [15]; 125 g ai/ha): 20; Plant response rating, Corn (corn [15]; 500 g ai/ha): 50; Plant response rating, Sedge, Umbrella, Flood (sedge, umbrella; 250 g ai/ha): 0; Plant response rating, Morningglory (morningglory [16]; 125 g ai/ha): 80; Plant response rating, Morningglory (morningglory [16]; 500 g ai/ha): 90; Plant response rating, Foxtail, Giant (foxtail, giant [17]; 125 g ai/ha): 20; Plant response rating, Foxtail, Giant (foxtail, giant [17]; 500 g ai/ha): 60
CCCc1nc(-c2ccc(C(F)(F)F)cc2)nn1Cc1ccnc(C(F)(F)F)c1 [Compound 12]	0	20	30	50	70	100	100	100	50	80	100	100	100	100	70	90	100	100	10	30	Plant response rating, Rice, Flood (rice; 125 g ai/ha): 0; Plant response rating, Barnyardgrass, Flood (barnyardgrass [5]; 125 g ai/ha): 0; Plant response rating, Wheat (wheat [12]; 125 g ai/ha): 30; Plant response rating, Wheat (wheat [12]; 500 g ai/ha): 40; Plant response rating, Crabgrass, Large (crabgrass, large [13]; 125 g ai/ha): 50; Plant response rating, Crabgrass, Large (crabgrass, large [13]; 500 g ai/ha): 90; Plant response rating, Ducksalad, Flood (ducksalad; 125 g ai/ha): 0; Plant response rating, Velvetleaf (velvetleaf [14]; 125 g ai/ha): 70; Plant response rating, Velvetleaf (velvetleaf [14]; 500 g ai/ha, approx. 10 d): 70; Plant response rating, Corn (corn [15]; 125 g ai/ha): 20; Plant response rating, Corn (corn [15]; 500 g ai/ha): 40; Plant response rating, Sedge, Umbrella, Flood (sedge, umbrella; 125 g ai/ha): 0; Plant response rating, Morningglory (morningglory [16]; 125 g ai/ha): 70; Plant response rating, Morningglory (morningglory [16]; 500 g ai/ha): 100; Plant response rating, Foxtail, Giant (foxtail, giant [17]; 125 g ai/ha): 70; Plant response rating, Foxtail, Giant (foxtail, giant [17]; 500 g ai/ha): 90
Cn1nc(-c2ccc(F)cc2)nc1Cc1ccnc(C(F)(F)F)c1 [Compound 13]	0	10	50	90	70	90	100	100	30	100	100	100	100	100	60	70	100	100	0	0	Plant response rating, Rice, Flood (rice; 125 g ai/ha): 0; Plant response rating, Barnyardgrass, Flood (barnyardgrass [5]; 125 g ai/ha): 0; Plant response rating, Wheat (wheat [12]; 125 g ai/ha): 30; Plant response rating, Wheat (wheat [12]; 500 g ai/ha): 40; Plant response rating, Crabgrass, Large (crabgrass, large [13]; 125 g ai/ha): 70; Plant response rating, Crabgrass, Large (crabgrass, large [13]; 500 g ai/ha): 90; Plant response rating, Ducksalad, Flood (ducksalad; 125 g ai/ha): 65; Plant response rating, Velvetleaf (velvetleaf [14]; 125 g ai/ha): 20; Plant response rating, Velvetleaf (velvetleaf [14]; 500 g ai/ha, approx. 10 d): 80; Plant response rating, Corn (corn [15]; 125 g ai/ha): 30; Plant response rating, Corn (corn [15]; 500 g ai/ha): 60; Plant response rating, Sedge, Umbrella, Flood (sedge, umbrella; 125 g ai/ha): 80; Plant response rating, Morningglory (morningglory [16]; 125 g ai/ha): 70; Plant response rating, Morningglory (morningglory [16]; 500 g ai/ha): 100; Plant response rating, Foxtail, Giant (foxtail, giant [17]; 125 g ai/ha): 80; Plant response rating, Foxtail, Giant (foxtail, giant [17]; 500 g ai/ha): 90
CCCn1nc(-c2ccc(F)cc2)nc1C(O)c1ccnc(C(F)(F)F)c1 (stereo not drawn) [Compound 16]	0	0	0	70	0	40	100	100	0	80	80	100	60	100	0	20	50	90	0	0	Plant response rating, Rice, Flood (rice; 125 g ai/ha): 0; Plant response rating, Barnyardgrass, Flood (barnyardgrass [5]; 125 g ai/ha): 0; Plant response rating, Wheat (wheat [12]; 125 g ai/ha): 10; Plant response rating, Wheat (wheat [12]; 500 g ai/ha): 30; Plant response rating, Crabgrass, Large (crabgrass, large [13]; 125 g ai/ha): 20; Plant response rating, Crabgrass, Large (crabgrass, large [13]; 500 g ai/ha): 70; Plant response rating, Ducksalad, Flood (ducksalad; 125 g ai/ha): 0; Plant response rating, Velvetleaf (velvetleaf [14]; 125 g ai/ha): 0; Plant response rating, Velvetleaf (velvetleaf [14]; 500 g ai/ha, approx. 10 d): 20; Plant response rating, Corn (corn [15]; 125 g ai/ha): 10; Plant response rating, Corn (corn [15]; 500 g ai/ha): 50; Plant response rating, Sedge, Umbrella, Flood (sedge, umbrella; 125 g ai/ha): 0; Plant response rating, Morningglory (morningglory [16]; 125 g ai/ha): 40; Plant response rating, Morningglory (morningglory [16]; 500 g ai/ha): 40; Plant response rating, Foxtail, Giant (foxtail, giant [17]; 125 g ai/ha): 30; Plant response rating, Foxtail, Giant (foxtail, giant [17]; 500 g ai/ha): 70
